Measured values published in patent US6054435A, “6-O-substituted macrolides having antibacterial activity” (priority 1999, dated 2000).
≈ marks a conversion by molar mass, not a printed value.

Assays:
Experiment in all cases: in vitro antibacterial activity (MIC), agar dilution
Assay type in all cases: cell-based
[1] = test system: Candida albicans CCH 442; conditions: organism code TT; BHI agar, 35-37° C., 20 to 24 hours; unit assumed
Procedure, shortened: (§1)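 MIC was taken by eye as the lowest drug level showing no growth, only haze or isolated colonies relative to the growth control. Organisms were replicator-spotted at 1:100 (Streptococcus 1:10) onto BHI agar plates containing serial compound dilutions, with a same-class reference antibiotic plate included.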

[2] = test system: Enterococcus faecium ATCC 8043; conditions: organism code II; BHI agar, 35-37° C., 20 to 24 hours; unit assumed
Procedure, shortened: as §1

[3] = test system: Escherichia coli DC-2; conditions: organism code SS; BHI agar, 35-37° C., 20 to 24 hours; unit assumed
Procedure, shortened: as §1

[4] = test system: Escherichia coli JUHL; conditions: organism code QQ; BHI agar, 35-37° C., 20 to 24 hours; unit assumed
Procedure, shortened: as §1

[5] = test system: Escherichia coli SS; conditions: organism code RR; BHI agar, 35-37° C., 20 to 24 hours; unit assumed
Procedure, shortened: as §1

[6] = test system: Haemophilis Influenzae DILL AMP R; conditions: organism code WW; BHI agar, 35-37° C., 20 to 24 hours; unit assumed
Procedure, shortened: as §1

[7] = test system: Micrococcus luteus ATCC 4698; conditions: organism code PP; BHI agar, 35-37° C., 20 to 24 hours; unit assumed
Procedure, shortened: (§2)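 Test compound serially diluted in Brain Heart Infusion agar across twelve plates; inocula of 1:100 dilution (1:10 for slow growers such as Streptococcus) applied by Steers replicator. MIC taken visually as lowest concentration giving no growth, slight haze or sparse isolated colonies versus drug-free growth control.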

[8] = test system: Micrococcus luteus ATCC 9341; conditions: organism code OO; BHI agar, 35-37° C., 20 to 24 hours; unit assumed
Procedure, shortened: as §2

[9] = test system: Mycobacterium smegmatis ATCC 114; conditions: organism code UU; BHI agar, 35-37° C., 20 to 24 hours; unit assumed
Procedure, shortened: as §1

[10] = test system: Nocardia Asteroides ATCC9970; conditions: organism code VV; BHI agar, 35-37° C., 20 to 24 hours; unit assumed
Procedure, shortened: as §1

[11] = test system: Staphylococcus aureus 1775; conditions: organism code GG; BHI agar, 35-37° C., 20 to 24 hours; unit assumed
Procedure, shortened: as §1

[12] = test system: Staphylococcus aureus A-5278; conditions: organism code CC; BHI agar, 35-37° C., 20 to 24 hours; unit assumed
Procedure, shortened: as §1

[13] = test system: Staphylococcus aureus A5177; conditions: organism code BB; BHI agar, 35-37° C., 20 to 24 hours; unit assumed
Procedure, shortened: as §1

[14] = test system: Staphylococcus aureus ATCC 6538P; conditions: organism code AA; BHI agar, 35-37° C., 20 to 24 hours; unit assumed
Procedure, shortened: as §1

[15] = test system: Staphylococcus aureus CMX 553; conditions: organism code FF; BHI agar, 35-37° C., 20 to 24 hours; unit assumed
Procedure, shortened: as §1

[16] = test system: Staphylococcus aureus CMX 642A; conditions: organism code DD; BHI agar, 35-37° C., 20 to 24 hours; unit assumed
Procedure, shortened: as §1

[17] = test system: Staphylococcus aureus NCTC10649M; conditions: organism code EE; BHI agar, 35-37° C., 20 to 24 hours; unit assumed
Procedure, shortened: as §1

[18] = test system: Staphylococcus epidermidis 3519; conditions: organism code HH; BHI agar, 35-37° C., 20 to 24 hours; unit assumed
Procedure, shortened: as §1

[19] = test system: Streptococcus Pneumonia 5649; conditions: organism code ZZA; BHI agar, 35-37° C., 20 to 24 hours; unit assumed
Procedure, shortened: as §1

[20] = test system: Streptococcus Pneumonia 5979; conditions: organism code ZZ; BHI agar, 35-37° C., 20 to 24 hours; unit assumed
Procedure, shortened: as §1

[21] = test system: Streptococcus Pneumonia ATCC6303; conditions: organism code XX; BHI agar, 35-37° C., 20 to 24 hours; unit assumed
Procedure, shortened: as §1

[22] = test system: Streptococcus Pneumonia GYR 1171; conditions: organism code YY; BHI agar, 35-37° C., 20 to 24 hours; unit assumed
Procedure, shortened: as §1

[23] = test system: Streptococcus agalactiae CMX 508; conditions: organism code KK; BHI agar, 35-37° C., 20 to 24 hours; unit assumed
Procedure, shortened: as §1

[24] = test system: Streptococcus bovis A-5169; conditions: organism code JJ; BHI agar, 35-37° C., 20 to 24 hours; unit assumed
Procedure, shortened: as §1

[25] = test system: Streptococcus pyogenes 930; conditions: organism code MM; BHI agar, 35-37° C., 20 to 24 hours; unit assumed
Procedure, shortened: as §1

[26] = test system: Streptococcus pyogenes EES61; conditions: organism code LL; BHI agar, 35-37° C., 20 to 24 hours; unit assumed
Procedure, shortened: as §1

[27] = test system: Streptococcus pyogenes PIU 2548; conditions: organism code NN; BHI agar, 35-37° C., 20 to 24 hours; unit assumed
Procedure, shortened: as §1

| Structure (SMILES) | MIC [1] | MIC [2] | MIC [3] | MIC [4] | MIC [5] | MIC [6] | MIC [7] | MIC [8] | MIC [9] | MIC [10] | MIC [11] | MIC [12] | MIC [13] | MIC [14] | MIC [15] | MIC [16] | MIC [17] | MIC [18] | MIC [19] | MIC [20] | also measured |
| --- | --- | --- | --- | --- | --- | --- | --- | --- | --- | --- | --- | --- | --- | --- | --- | --- | --- | --- | --- | --- | --- |
| CCOC(=O)c1cncc(-c2ccc(C#CCO[C@]3(C)C[C@@H](C)C(=O)[C@H](C)[C@H]4NC(=O)O[C@]4(C)[C@@H](CC)OC(=O)[C@H](C)C(=O)[C@H](C)[C@H]3O[C@@H]3O[C@H](C)C[C@H](N(C)C)[C@H]3O)s2)c1 [Example 10] | > 100 µg/mL | 0.1 µg/mL (≈ 0.115 µM) | > 100 µg/mL | > 100 µg/mL | 0.78 µg/mL (≈ 0.899 µM) | 8 µg/mL (≈ 9.22 µM) | 0.2 µg/mL (≈ 0.23 µM) | 0.01 µg/mL (≈ 0.0115 µM) | 1.56 µg/mL (≈ 1.8 µM) | 0.1 µg/mL (≈ 0.115 µM) | > 100 µg/mL | > 100 µg/mL | 0.1 µg/mL (≈ 0.115 µM) | 0.1 µg/mL (≈ 0.115 µM) | 0.05 µg/mL (≈ 0.0576 µM) | 0.1 µg/mL (≈ 0.115 µM) | 0.2 µg/mL (≈ 0.23 µM) | 0.2 µg/mL (≈ 0.23 µM) | 0.5 µg/mL (≈ 0.576 µM) | 4 µg/mL (≈ 4.61 µM) | MIC [21]: 0.03 µg/mL (≈ 0.0346 µM); MIC [22]: 0.03 µg/mL (≈ 0.0346 µM); MIC [23]: 0.01 µg/mL (≈ 0.0115 µM); MIC [24]: 0.005 µg/mL (≈ 0.00576 µM); MIC [25]: 50 µg/mL (≈ 57.6 µM); MIC [26]: 0.01 µg/mL (≈ 0.0115 µM); MIC [27]: 0.2 µg/mL (≈ 0.23 µM) |
| CC[C@H]1OC(=O)[C@H](C)C(=O)[C@H](C)[C@@H](O[C@@H]2O[C@H](C)C[C@H](N(C)C)[C@H]2O)[C@](C)(OC/C=C/c2ccc3ncc(Br)cc3c2)C[C@@H](C)C(=O)[C@H](C)[C@H]2NC(=O)O[C@@]21C [Example 38] | > 100 µg/mL | 0.05 µg/mL (≈ 0.0592 µM) | > 100 µg/mL | 100 µg/mL (≈ 118 µM) | 0.78 µg/mL (≈ 0.923 µM) | 2 µg/mL (≈ 2.37 µM) | 0.2 µg/mL (≈ 0.237 µM) | 0.05 µg/mL (≈ 0.0592 µM) | 0.39 µg/mL (≈ 0.462 µM) | 0.05 µg/mL (≈ 0.0592 µM) | 100 µg/mL (≈ 118 µM) | 100 µg/mL (≈ 118 µM) | 0.2 µg/mL (≈ 0.237 µM) | 0.2 µg/mL (≈ 0.237 µM) | 0.2 µg/mL (≈ 0.237 µM) | 0.2 µg/mL (≈ 0.237 µM) | 0.2 µg/mL (≈ 0.237 µM) | 0.2 µg/mL (≈ 0.237 µM) | 0.25 µg/mL (≈ 0.296 µM) | 2 µg/mL (≈ 2.37 µM) | MIC [21]: 0.03 µg/mL (≈ 0.0355 µM); MIC [22]: 0.03 µg/mL (≈ 0.0355 µM); MIC [23]: 0.02 µg/mL (≈ 0.0237 µM); MIC [24]: ≤ 0.005 µg/mL; MIC [25]: 3.1 µg/mL (≈ 3.67 µM); MIC [26]: 0.02 µg/mL (≈ 0.0237 µM); MIC [27]: 0.2 µg/mL (≈ 0.237 µM) |
| CC[C@H]1OC(=O)[C@H](C)C(=O)[C@H](C)[C@@H](O[C@@H]2O[C@H](C)C[C@H](N(C)C)[C@H]2O)[C@](C)(OC/C=C/c2cnc(-c3cccs3)s2)C[C@@H](C)C(=O)[C@H](C)[C@H]2NC(=O)O[C@@]21C [Example 57] | > 100 µg/mL | 0.05 µg/mL (≈ 0.0622 µM) | 100 µg/mL (≈ 124 µM) | 100 µg/mL (≈ 124 µM) | 0.39 µg/mL (≈ 0.485 µM) | 4 µg/mL (≈ 4.97 µM) | 0.05 µg/mL (≈ 0.0622 µM) | 0.02 µg/mL (≈ 0.0249 µM) | 0.2 µg/mL (≈ 0.249 µM) | 0.05 µg/mL (≈ 0.0622 µM) | 100 µg/mL (≈ 124 µM) | > 100 µg/mL | 0.05 µg/mL (≈ 0.0622 µM) | 0.1 µg/mL (≈ 0.124 µM) | 0.1 µg/mL (≈ 0.124 µM) | 0.05 µg/mL (≈ 0.0622 µM) | 0.2 µg/mL (≈ 0.249 µM) | 0.05 µg/mL (≈ 0.0622 µM) | 0.25 µg/mL (≈ 0.311 µM) | 0.5 µg/mL (≈ 0.622 µM) | MIC [21]: ≤ 0.004 µg/mL; MIC [22]: ≤ 0.004 µg/mL; MIC [23]: 0.01 µg/mL (≈ 0.0124 µM); MIC [24]: 0.02 µg/mL (≈ 0.0249 µM); MIC [25]: 25 µg/mL (≈ 31.1 µM); MIC [26]: 0.01 µg/mL (≈ 0.0124 µM); MIC [27]: 0.1 µg/mL (≈ 0.124 µM) |
| CC[C@H]1OC(=O)[C@H](C)C(=O)[C@H](C)[C@@H](O[C@@H]2O[C@H](C)C[C@H](N(C)C)[C@H]2O)[C@](C)(OCC#Cc2ccc(-c3ccccc3)s2)C[C@@H](C)C(=O)[C@H](C)[C@H]2NC(=O)O[C@@]21C [Example 13] | > 100 µg/mL | 0.05 µg/mL (≈ 0.0629 µM) | > 100 µg/mL | > 100 µg/mL | 3.1 µg/mL (≈ 3.9 µM) | 32 µg/mL (≈ 40.3 µM) | 0.2 µg/mL (≈ 0.252 µM) | 0.05 µg/mL (≈ 0.0629 µM) | 1.56 µg/mL (≈ 1.96 µM) | 0.78 µg/mL (≈ 0.981 µM) | > 100 µg/mL | > 100 µg/mL | 0.39 µg/mL (≈ 0.491 µM) | 0.39 µg/mL (≈ 0.491 µM) | 0.39 µg/mL (≈ 0.491 µM) | 0.39 µg/mL (≈ 0.491 µM) | 0.78 µg/mL (≈ 0.981 µM) | 0.78 µg/mL (≈ 0.981 µM) | 2 µg/mL (≈ 2.52 µM) | 4 µg/mL (≈ 5.03 µM) | MIC [21]: 0.25 µg/mL (≈ 0.314 µM); MIC [22]: 0.25 µg/mL (≈ 0.314 µM); MIC [23]: 0.1 µg/mL (≈ 0.126 µM); MIC [24]: 0.05 µg/mL (≈ 0.0629 µM); MIC [25]: 100 µg/mL (≈ 126 µM); MIC [26]: 0.02 µg/mL (≈ 0.0252 µM); MIC [27]: 0.39 µg/mL (≈ 0.491 µM) |
